{"source": "paper PMC10010643", "about": "(Cancer Chemotherapy and Pharmacology, 2023)", "key": {"lung fibrosis": {"test_system": "lung fibrosis", "parameters": "method as in PMID 36154172", "conditions": "bleomycin-induced; cited from earlier work"}, "[1]": {"test_system": "panel of different targets including enzymes, receptors, and ion channels", "parameters": "method as in PMID 36154172", "conditions": "cited from earlier work"}, "[2]": {"assay": "Plasma PK, Part B multiple oral BID doses in healthy participants", "assay_type": "in vivo, human", "conditions": "for concentration at 12 h / AUC / Cmax / Tmax / half-life / Vd/F: human, plasma, oral; for concentration at 12 h: read-out: Trough (12 h post-dose) concentration (Cmin), geometric mean (range); for AUC: read-out: AUC0-τ, geometric mean (CV%); for Cmax: read-out: Cmax, geometric mean (CV%); for half-life: read-out: t½, arithmetic mean (SD) (converted); for Vd/F: read-out: Vz/F, geometric mean (CV%)", "description": "Following review of safety, tolerability, and PK data from cohorts A1–A6, participants received twice-daily doses (BID) under fasted conditions on days 1–9 and a final single dose in the morning of day 10. […] There was one treatment period and all participants stayed at the CRU from day − 1 until the morning of day 11 (24 h after the final dose on day 10). All were to return for a follow-up visit 5–7 days after their final dose.\nBlood samples (4 mL) were collected in K3 EDTA tubes by venipuncture or cannulation. In Part A, samples were taken pre-dose and at 0.5, 1, 1.5, 2, 3, 4, 6, 8, 12, 16, 24, 36 and 48 h post-dose. In part B, samples were taken pre-dose on days 1 (pre-AM dose) and 10 (pre-final dose) and at 0.5, 1, 1.5, 2, 3, 4, 6, 8 and 12 h post-AM dose for day 1 and post-final dose for day 10. Samples were also taken on days 4–9 pre-AM dose, on day 11 at 24 and 36 h post-final dose, and on day 12 at 48 h post-final dose. Blood samples were centrifuged at 1500 g for 10 min at […] and split into two plasma aliquots.\nUrine was collected by spot collection in Part A only before dosing and between 0–6, 6–12, 12–24, and 24–48 h post-dose. Blood and urine aliquots were stored in polypropylene tubes at − 70 °C until bioanalysis.\nIn Part B, the plasma PK parameters included AUC over a dosing interval (AUC0–τ), AUC0–∞, Cmax, Tmax, t½, minimum observed plasma concentration (Cmin), observed accumulation ratio based on AUC0–τ (RAAUC0–τ) and observed accumulation ratio based on Cmax (RACmax). Further details can be found in the Supplementary materials.\nDose proportionality was analyzed for exposure parameters after fasted doses. The power model was used on AUC0–∞, AUC0–tlast, and Cmax on day 1 in Part A. Data were analyzed over two dose ranges: 50–400 mg (50 mg capsules) and 5–50 mg (5 mg capsules). An analysis of variance was used on AUC0–τ and Cmax on day 10 in Part B. The effect of food on AUC0–∞, AUC0–tlast, and Cmax at 50 mg in Part A was investigated using a mixed model which included treatment as a fixed effect and subject as a random effect."}, "liver fibrosis": {"test_system": "liver fibrosis", "parameters": "method as in PMID 36154172", "conditions": "CCl4-induced; cited from earlier work"}, "[3]": {"assay": "Maximum recommended starting dose in humans from preclinical studies", "parameters": "species or system human", "description": "A starting dose of 5 mg was chosen as this was approximately twofold lower than the maximum recommended starting dose (MRSD) in humans of 9.6 mg determined from the results of a murine PD study, and was therefore not expected to have any pharmacological activity. This dose was also more than 30-fold lower than the MRSD of 162 mg calculated from the no observed adverse effect level in the toxicology species (mouse and dog)."}, "[4]": {"conditions": "50 mg, 50 mg BID, fasted, Day 1"}, "[5]": {"conditions": "50 mg, 50 mg BID, fasted, Day 10"}, "[6]": {"conditions": "100 mg, 100 mg BID, fasted, Day 1"}, "[7]": {"conditions": "100 mg, 100 mg BID, fasted, Day 10"}}, "note": "Read-outs that look alike come from different tables or passages of the source.", "data": [{"compound": "OC[C@H]1O[C@H](Sc2cncc(Br)c2)[C@H](O)[C@@H](n2cc(-c3cc(F)c(F)c(F)c3)nn2)[C@H]1O", "note": "[GB1211]", "values": [{"measurement": "Fibrosis in vivo, lung", "setting": "lung fibrosis", "value": "reducing fibrosis"}, {"measurement": "Safety profile against a panel of different targets", "setting": "[1]", "value": "favorable safety profile"}, {"measurement": "CL/F, geometric mean (CV%)", "setting": "[2]; 50 mg BID, fasted, Day 10", "value": "9.75 (29.0) L/h"}, {"measurement": "Cmin, geometric mean (CV%)", "setting": "[2]; 50 mg BID, fasted, Day 10", "value": "249 (26.2) ng/mL"}, {"measurement": "CL/F, geometric mean (CV%)", "setting": "[2]; 100 mg BID, fasted, Day 10", "value": "13.3 (21.1) L/h"}, {"measurement": "Cmin, geometric mean (CV%)", "setting": "[2]; 100 mg BID, fasted, Day 10", "value": "338 (27.5) ng/mL"}, {"measurement": "t½, arithmetic mean (SD)", "setting": "[2]; 100 mg BID, fasted, Day 10", "value": "13.1 (2.65) h"}, {"measurement": "Dose proportionality of AUC0–τ and Cmax", "setting": "[2]; 50 and 100 mg BID, day 10", "value": "sub-proportional manner"}, {"measurement": "Time to steady-state after the start of the BID multiple-dosing period", "setting": "[2]; by the morning of day 3", "value": 48, "unit": "h"}, {"measurement": "concentration at 12 h", "setting": "[2]; 50 mg BID, day 10", "value": 249, "unit": "ng/mL"}, {"measurement": "AUC", "setting": "[2]; [4]", "value": 2220, "unit": "ng·h/mL"}, {"measurement": "Cmax", "setting": "[2]; [4]", "value": 330, "unit": "ng/mL"}, {"measurement": "Tmax", "setting": "[2]; 50 mg, 50 mg BID, fasted, Day 1, read-out: Tmax, median (min–max)", "value": 4, "unit": "h"}, {"measurement": "AUC", "setting": "[2]; [5]", "value": 5130, "unit": "ng·h/mL"}, {"measurement": "Cmax", "setting": "[2]; [5]", "value": 658, "unit": "ng/mL"}, {"measurement": "Tmax", "setting": "[2]; 50 mg, 50 mg BID, fasted, Day 10, read-out: Tmax, median (min–max)", "value": 2.5, "unit": "h"}, {"measurement": "half-life", "setting": "[2]; [5]", "value": "~21.4", "unit": "h"}, {"measurement": "concentration at 12 h", "setting": "[2]; 100 mg BID, day 10", "value": 338, "unit": "ng/mL"}, {"measurement": "AUC", "setting": "[2]; [6]", "value": 3560, "unit": "ng·h/mL"}, {"measurement": "Cmax", "setting": "[2]; [6]", "value": 546, "unit": "ng/mL"}, {"measurement": "Tmax", "setting": "[2]; 100 mg, 100 mg BID, fasted, Day 1, read-out: Tmax, median (min–max)", "value": 3, "unit": "h"}, {"measurement": "AUC", "setting": "[2]; [7]", "value": 7530, "unit": "ng·h/mL"}, {"measurement": "Cmax", "setting": "[2]; [7]", "value": 975, "unit": "ng/mL"}, {"measurement": "Tmax", "setting": "[2]; 100 mg, 100 mg BID, fasted, Day 10, read-out: Tmax, median (min–max)", "value": 3, "unit": "h"}, {"measurement": "half-life", "setting": "[2]; [7]", "value": "~13.1", "unit": "h"}, {"measurement": "Tmax", "setting": "[2]; multiple BID doses, days 1 and 10, read-out: Median Tmax, range", "value": "2.5 to 4", "unit": "h"}, {"measurement": "Vd/F", "setting": "[2]; 50 mg BID, fasted, Day 10", "value": 311, "unit": "L"}, {"measurement": "Vd/F", "setting": "[2]; 100 mg BID, fasted, Day 10", "value": 248, "unit": "L"}, {"measurement": "Accumulation in plasma with multiple dosing", "setting": "[2]; multiple BID oral dosing", "value": "~ twofold"}, {"measurement": "Time to steady-state", "setting": "[2]; multiple BID oral dosing", "value": "≤ 3", "unit": "days"}, {"measurement": "Fibrosis in vivo, liver", "setting": "liver fibrosis", "value": "reducing fibrosis"}, {"measurement": "Maximum recommended starting dose (MRSD)", "setting": "[3]; calculated from the no observed adverse effect level in the toxicology species (mouse and dog)", "value": 162, "unit": "mg"}, {"measurement": "Maximum recommended starting dose (MRSD) in humans", "setting": "[3]; determined from the results of a murine PD study", "value": 9.6, "unit": "mg"}]}]}
